Assay results: patent publication US20130296427A1, “NERAMEXANE FOR THE TREATMENT OR PREVENTION OF TINNITUS RELATED WITH STRESS OR ACUTE HEARING LOSS” (MERZ PHARMA GmbH & CO. KGaA, priority 2011, published 2013)

Test system: subjects with tinnitus caused by acute hearing loss, stress and other reasons
Assay: Two double-blind, randomized, placebo-controlled 17-week studies of neramexane mesylate in tinnitus; change in TBF-12 total score
Format: in vivo, human
Conditions: FAS-LOCF; for Change in the TBF-12 total score from baseline to Week 17/EOT, mean (SD): neramexane mesylate 50 or 75 mg/d, 17 weeks; for LSmean [ner − plac], estimated difference Neramexane − Placebo in change of TBF-12 total score, adjusted for covariates from ANCOVA: Week 17/EOT, negative = superior to placebo
Method: The objective was to assess the efficacy of neramexane as a treatment for tinnitus. The primary objectives of these two independent 17 weeks double-blind, randomized placebo-controlled studies were to compare the efficacy, tolerability and safety of neramexane mesylate at two different, weight-adapted dosages (50 or 75 mg/d) with placebo in subjects with tinnitus caused acute hearing loss, stress and other reasons.
In two independent, double-blind, multicenter, randomized, placebo-controlled, parallel-group studies, the efficacy of neramexane in subjects suffering from tinnitus caused by acute hearing loss, stress and other reasons were assessed.
In both studies, subjects were treated for 17 weeks with neramexane or placebo including a four-resp. five-week up-titration period, depending on study drug dose.
Patients with a target daily dose of 50 mg neramexane mesylate (<90 kg body weight) were to reach steady state after four weeks, patients with a target total daily dose of 75 mg neramexane mesylate 90 kg body weight) were to reach steady state after five weeks of treatment. For patients who experienced dose limiting adverse events with the 75 mg dose, the dosage was reduced by switching the patient to 50 mg/day. Patients unable to tolerate a minimum dosage of 50 mg/day discontinued.
Patients' eligibility for the studies was evaluated via a check of inclusion/exclusion criteria. The subject completed a Tinnitus-Beeinträchtigungs-Fragebogen (TBF-12=Tinnitus Handicap Inventory (THI-12)) (i.e., a 12-item modified and validated version (Greimel K V et al., Tinnitus-Beeinträchtigungs-Fragebogen (TBF-12). Manual. Frankfurt am Main: Swets & Zeitlinger B.V.; 2000) of the 25-item Tinnitus Handicap Inventory or THI (Newman C W, et al. Development of the Tinnitus Handicap Inventory. Arch Otolaryngol Head Neck Surg 1996; 122(2): 143-148; Newman C W, et al. Psychometric adequacy of the Tinnitus Handicap Inventory (THI) for evaluating treatment outcome. J Am Acad Audiol 1998; 9(2): 153-160.)). The TBF-12 items can be grouped in 2 factorial scores: an emotional-cognitive and a functional-communicational factor. At Visit 1 patients also completed a Tinnitus Rating Scale (TRS, Likert scores on Tinnitus Loudness, Tinnitus Impact on Life, and Tinnitus Annoyance), and the Hospital Anxiety and Depression Scale Audiology/psychoacoustic measurements were performed unless results from previous examinations performed no more than one year prior to Screening were available.
Neramexane mesylate immediate release tablets (12.5 mg and 25 mg, the manufacture thereof being disclosed in WO 2009/033649, whose respective content is incorporated herein by reference) and matching placebo tablets are administered as film coated tablets.
Primary Outcome • The change in TBF-12 total score from baseline (Visit 2) to the endpoint visit (Visit 7, i.e. Week 17 or end of treatment) was the primary efficacy endpoint in these studies.
All efficacy analyses were performed on the full analysis set (FAS) using the last-observation-carried-forward (LOCF) approach. For sensitivity purposes an analysis of the per-protocol set and of observed cases was performed additionally. All statistical tests used for testing the primary efficacy (confirmatory testing) and secondary efficacy criteria (exploratory), and all other statistical tests used for exploratory analyses were two-sided hypothesis tests performed at the 5% significance level. For all variables standard descriptive statistics were calculated.
Change from baseline (Visit 2) to Week 17 in TBF-12 total score was analyzed using an ANCOVA model with treatment group, gender and country as factors and baseline TBF-12 total score as covariate.

## CC1(C)CC(C)(C)CC(C)(N)C1 [Neramexane, 1-amino-1,3,3,5,5-pentamethylcyclohexane]
Tinnitus caused by acute hearing loss, N=34
  Change in the TBF-12 total score from baseline to Week 17/EOT, mean (SD): 34/−3.1 ± 5.0
Tinnitus caused by acute hearing loss, P-value 0.0162
  LSmean [ner − plac], estimated difference Neramexane − Placebo in change of TBF-12 total score, adjusted for covariates from ANCOVA: −3.9
Tinnitus caused by other reasons, N=323
  Change in the TBF-12 total score from baseline to Week 17/EOT, mean (SD): 323/−2.4 ± 4.1
Tinnitus caused by other reasons, P-value 0.5969
  LSmean [ner − plac], estimated difference Neramexane − Placebo in change of TBF-12 total score, adjusted for covariates from ANCOVA: 0.2
Tinnitus caused by stress, N=41
  Change in the TBF-12 total score from baseline to Week 17/EOT, mean (SD): 41/−3.4 ± 4.2
Tinnitus caused by stress, P-value 0.0094
  LSmean [ner − plac], estimated difference Neramexane − Placebo in change of TBF-12 total score, adjusted for covariates from ANCOVA: −2.3
